Patent US20110105436A1, “HETEROARYL COMPOUNDS, COMPOSITIONS, AND METHODS OF USE IN CANCER TREATMENT” (AUCKLAND UNISERVICES LIMITED, priority 2008, published 2011)
One block for each molecule: values may come before it.

Experiments:
[1] = test system: RCC4 cells; experiment: XTT assay in VHL-deficient RCC4 cells; type: cell-based; settings: Homo sapiens, 96 h, XTT assay, VHL-deficient RCC4 cells, four days
Procedure: (§1) Cell Viability and XTT assays. For cell viability, 100,000 cells were plated in a 12-well plate. The following day, 1.25 μM STF-62247 was added in the presence or absence of 1 mM 3-MA for 24 hours at 37° C. Cells were trypsinized and counted by trypan blue exclusion. For XTT assays, 5000 RCC4 with and without VHL cells or 2,500 SN12C with and without VHL shRNA cells were plated in 96-well plates. The following day, vehicle (DMSO), STF-62247 or each of 19 analogs were added to media by serial dilution. Four days later, the media was aspirated and XTT solution containing 0.3 mg/ml of XTT (Sigma Chemical Co) in Phenol Red-free media, 20% FCS and 2.65 mg/ml N-methyl dibenzopyrazine methyl sulfate (PMS) was added to the cells and incubated at 37° C. for 1-2 hours. Metabolism of XTT was quantified by measuring the absorbance at 450 nm on a plate reader.

[2] = test system: RCC4/VHL cells; experiment: XTT assay, RCC4/VHL versus RCC4 cells (selectivity ratio); type: cell-based; settings: selectivity ratio, IC50 in RCC4/VHL cells/IC50 in RCC4 cells
Procedure: as §1
A. RCC4 and RCC4/VHL were treated with 1.25 μM of each 19 analogs for 20 hours and the presence of vacuoles was examined under light microscopy. B. Western blot for LC3 after treatment with each compound. Tubulin was used as loading control. Ratio is the relative from the IC50 in RCC4/VHL cells/IC50 in RCC4 cells. C. Acidic vesicle organelles (AVO) measured by FACS analysis in cells treated with 1.25 μM of STF-62247 or with compounds 21, 15, 25, 47, and 53 and stained with acridine orange.

melting point: 149 to 151 °C
Structure (SMILES): Cc1cccc(N(CCO)c2nc(-c3ccncc3)cs2)c1 [Compound 97, 2-{3-Methyl[4-(4-pyridinyl)-1,3-thiazol-2-yl]anilino}ethanol]
IC50 ([1]; Table 1): > 40 µM

melting point: 141 to 143 °C
Structure (SMILES): Cc1cccc(Nc2nc(-c3ccnc(N4CCN(C)CC4)c3)cs2)c1 [Compound 198, N-(3-Methylphenyl)-4-[2-(4-methyl-1-piperazinyl)-4-pyridinyl]-1,3-thiazol-2-amine]

melting point: 170 to 172 °C
Structure (SMILES): FC(F)(F)c1ccccc1Nc1nc(-c2ccncc2)cs1 [Compound 117, 4-(4-Pyridinyl)-N-[2-(trifluoromethyl)phenyl]-1,3-thiazol-2-amine]
IC50 ([1]; Table 1): > 40 µM

melting point: 239 to 241 °C
Structure (SMILES): FC(F)(F)c1cccc(Nc2nc(-c3ccncc3)cs2)c1 [Compound 19, 4-(4-Pyridinyl)-N-[3-(trifluoromethyl)phenyl]-1,3-thiazol-2-amine]
IC50 ([1]; Table 1): > 40 µM

melting point: 170 to 171 °C
Structure (SMILES): Cc1cccc(Nc2nc(-c3ccncc3)c[nH]2)c1 [Compound 196, N-(3-Methylphenyl)-4-(4-pyridinyl)-1H-imidazol-2-amine]

melting point: 229 to 230 °C
Structure (SMILES): Fc1cccc(Nc2nc(-c3ccncc3)cs2)c1 [Compound 121, N-(3-Fluorophenyl)-4-(4-pyridinyl)-1,3-thiazol-2-amine]
IC50 ([1]; Table 1): > 40 µM

melting point: 244 to 247 °C
Structure (SMILES): O=[N+]([O-])c1cccc(Nc2nc(-c3ccncc3)cs2)c1 [Compound 129, N-(3-Nitrophenyl)-4-(4-pyridinyl)-1,3-thiazol-2-amine]
IC50 ([1]; Table 1): > 40 µM

melting point: 162 to 164 °C
Structure (SMILES): Cc1cccc(Nc2nc(-c3cc[n+]([O-])cc3)cs2)c1 [Compound 188, N-(3-Methylphenyl)-4-(1-oxido-4-pyridinyl)-1,3-thiazol-2-amine]
IC50 ([1]; Table 2): > 40 µM

melting point: 198 to 200 °C
Structure (SMILES): Cc1cccc(Nc2nc(-c3ccnc(C)c3)cs2)c1 [Compound 145, N-(3-Methylphenyl)-4-(2-methyl-4-pyridinyl)-1,3-thiazol-2-amine]
IC50 ([1]; Table 2): > 40 µM

melting point: 148 to 150 °C
Structure (SMILES): Cc1cccc(Nc2nc(-c3ccnc(N(C)C)c3)cs2)c1 [Compound 199, N,N-Dimethyl-4-{2-[(3-methylphenyl)amino]-1,3-thiazol-4-yl}-2-pyridinamine]

Structure (SMILES): CCc1cc(-c2csc(Nc3cccc(C)c3)n2)ccn1 [Compound 160, 4-(2-Ethyl-4-pyridinyl)-N-(3-methylphenyl)-1,3-thiazol-2-amine]
Ratio ([2]; Table 2): >6.3
IC50 ([1]; Table 2): 6.4 µM

Structure (SMILES): CCN(CC)Cc1sc(Nc2cccc(C)c2)nc1-c1ccncc1 [Compound 84, 5-[(Diethylamino)methyl]-N-(3-methylphenyl)-4-(4-pyridinyl)-1,3-thiazol-2-amine]
Ratio ([2]; Table 1): 1.4
IC50 ([1]; Table 1): 13 µM

Structure (SMILES): Cc1cccc(Nc2nc(-c3ccncc3)c(CCCN3CCOCC3)s2)c1 [Compound 82, N-(3-Methylphenyl)-5-[3-(4-morpholinyl)propyl]-4-(4-pyridinyl)-1,3-thiazol-2-amine]
Ratio ([2]; Table 1): 1.6
IC50 ([1]; Table 1): 5.8 µM

Structure (SMILES): Cc1cccc(Nc2nc(-c3ccccn3)cs2)c1 [Compound 68, N-(3-Methylphenyl)-4-(2-pyridinyl)-1,3-thiazol-2-amine]
Ratio ([2]; Table 1): 0.9
IC50 ([1]; Table 1): 37 µM

Structure (SMILES): Cc1cccc(Nc2nc(-c3ccncc3C)cs2)c1 [Compound 166, N-(3-Methylphenyl)-4-(3-methyl-4-pyridinyl)-1,3-thiazol-2-amine]
Ratio ([2]; Table 2): >7.7
IC50 ([1]; Table 2): 5.2 µM

Structure (SMILES): Brc1cccc(Nc2nc(-c3ccncc3)cs2)c1 [Compound 123, N-(3-Bromophenyl)-4-(4-pyridinyl)-1,3-thiazol-2-amine]
Ratio ([2]; Table 1): >3.2
IC50 ([1]; Table 1): 12.4 µM

melting point: 230 to 232 °C
Structure (SMILES): COc1ccc(Nc2nc(-c3ccncc3)cs2)cc1O [Compound 51, 2-Methoxy-5-{[4-(4-pyridinyl)-1,3-thiazol-2-yl]amino}phenol]

Structure (SMILES): Fc1ccccc1Nc1nc(-c2ccncc2)cs1 [Compound 113, N-(2-Fluorophenyl)-4-(4-pyridinyl)-1,3-thiazol-2-amine]
Ratio ([2]; Table 1): >2.8
IC50 ([1]; Table 1): 14.3 µM

Structure (SMILES): Cc1cccc(Nc2nc(-c3ccncc3)c(C(=O)N(C)C)s2)c1 [Compound 92, N,N-Dimethyl-2-[(3-methylphenyl)amino]-4-(4-pyridinyl)-1,3-thiazole-5-carboxamide]
Ratio ([2]; Table 1): >2.5
IC50 ([1]; Table 1): 16 µM

Structure (SMILES): CN(C)CCOc1ccc(Nc2nc(-c3ccncc3)cs2)cc1 [Compound 29, N-{4-[2-(Dimethylamino)ethoxy]phenyl}-4-(4-pyridinyl)-1,3-thiazol-2-amine]
Ratio ([2]; Table 1): 1.3
IC50 ([1]; Table 1): 60 µM

Structure (SMILES): OCCc1ccc(Nc2nc(-c3ccncc3)cs2)cc1 [Compound 23, 2-(4-{[4-(4-Pyridinyl)-1,3-thiazol-2-yl]amino}phenyl)ethanol]
Ratio ([2]; Table 1): 16
IC50 ([1]; Table 1): 5 µM

Structure (SMILES): Cc1cccc(N(C)c2nc(-c3ccncc3)cs2)c1 [Compound 95, N-Methyl-N-(3-methylphenyl)-4-(4-pyridinyl)-1,3-thiazol-2-amine]
Ratio ([2]; Table 1): 0.6
IC50 ([1]; Table 1): 28 µM

Structure (SMILES): Cc1cccc(Nc2nc(-c3cc(Cl)nc(Cl)c3)cs2)c1 [Compound 158, N-[4-(2,6-Dichloro-4-pyridinyl)-1,3-thiazol-2-yl]-N-(3-methylphenyl)amine]
Ratio ([2]; Table 2): 2.3
IC50 ([1]; Table 2): 15 µM

Structure (SMILES): CCc1cnccc1-c1csc(Nc2cccc(C)c2)n1 [Compound 185, 4-(3-Ethyl-4-pyridinyl)-N-(3-methylphenyl)-1,3-thiazol-2-amine]
Ratio ([2]; Table 2): 2.8
IC50 ([1]; Table 2): 6.2 µM

Structure (SMILES): Cc1cccc(Nc2nc(-c3ccncc3)c(CN(C)C)s2)c1 [Compound 83, 5-[(Dimethylamino)methyl]-N-(3-methylphenyl)-4-(4-pyridinyl)-1,3-thiazol-2-amine]
Ratio ([2]; Table 1): 2.3
IC50 ([1]; Table 1): 16 µM

Structure (SMILES): COC(=O)/C=C/c1sc(Nc2cccc(C)c2)nc1-c1ccncc1 [Compound 78, Methyl (2E)-3-[2-[(3-Methylphenyl)amino]-4-(4-pyridinyl)-1,3-thiazol-5-yl]-2-propenoate]
Ratio ([2]; Table 1): 2.8
IC50 ([1]; Table 1): 2.5 µM

Structure (SMILES): Clc1cccc(Nc2nc(-c3ccncc3)cs2)c1 [Compound 17, N-(3-Chlorophenyl)-4-(4-pyridinyl)-1,3-thiazol-2-amine]
Ratio ([2]; Table 1): 5
IC50 ([1]; Table 1): 3 µM

Structure (SMILES): OCc1sc(Nc2ccc3c(c2)CCC3)nc1-c1ccncc1 [Compound 76, [2-(2,3-Dihydro-1H-inden-5-ylamino)-4-(4-pyridinyl)-1,3-thiazol-5-yl]methanol]
Ratio ([2]; Table 1): 1.4
IC50 ([1]; Table 1): 6.8 µM

Structure (SMILES): Cc1cccc(Nc2nc(-c3ccncc3Br)cs2)c1 [Compound 178, 4-(3-Bromo-4-pyridinyl)-N-(3-methylphenyl)-1,3-thiazol-2-amine]
Ratio ([2]; Table 2): >10
IC50 ([1]; Table 2): 3.9 µM

Structure (SMILES): COc1ccc(Nc2nc(-c3ccncc3)cs2)cc1 [Compound 27, N-(4-Methoxyphenyl)-4-(4-pyridinyl)-1,3-thiazol-2-amine]
Ratio ([2]; Table 1): 3.6
IC50 ([1]; Table 1): 14 µM

Structure (SMILES): CCN(c1cccc(C)c1)c1nc(-c2ccncc2)cs1 [Compound 96, N-Ethyl-N-(3-methylphenyl)-4-(4-pyridinyl)-1,3-thiazol-2-amine]
Ratio ([2]; Table 1): 0.6
IC50 ([1]; Table 1): 40 µM

melting point: 190 to 191 °C
Structure (SMILES): Cc1cccc(Nc2nc(-c3ccnc(N4CCOCC4)c3)cs2)c1 [Compound 197, N-(3-Methylphenyl)-4-[2-(4-morpholinyl)-4-pyridinyl]-1,3-thiazol-2-amine]

Structure (SMILES): Cc1cccc(Nc2nc(-c3ccncc3)c(C(N)=O)s2)c1 [Compound 91, 2-[(3-Methylphenyl)amino]-4-(4-pyridinyl)-1,3-thiazole-5-carboxamide]
Ratio ([2]; Table 1): >2.0
IC50 ([1]; Table 1): 19.2 µM

Structure (SMILES): Cc1cccc(Nc2nc(-c3cc(-c4ccccc4)nc4ccccc34)cs2)c1 [Compound 194, N-(3-Methylphenyl)-4-(2-phenyl-4-quinolinyl)-1,3-thiazol-2-amine]
Ratio ([2]; Table 2): >1.6
IC50 ([1]; Table 2): 25.4 µM

Structure (SMILES): CC(=O)c1cccc(Nc2nc(-c3ccncc3)cs2)c1 [Compound 125, 1-(3-{[4-(4-Pyridinyl)-1,3-thiazol-2-yl]amino}phenyl)ethanone]
Ratio ([2]; Table 1): >3.1
IC50 ([1]; Table 1): 13 µM

Structure (SMILES): Cc1cccc(Nc2nc(-c3ccncc3)c(CN3CCCCC3)s2)c1 [Compound 85, N-(3-Methylphenyl)-5-(1-piperidinylmethyl)-4-(4-pyridinyl)-1,3-thiazol-2-amine]
Ratio ([2]; Table 1): 1.9
IC50 ([1]; Table 1): 13 µM

Structure (SMILES): Cc1cccc(Nc2nc(-c3ccncc3C#CCO)cs2)c1 [Compound 186, 3-(4-{2-[(3-Methylphenyl)amino]-1,3-thiazol-4-yl}-3-pyridinyl)-2-propyn-1-ol]
Ratio ([2]; Table 2): 11.9
IC50 ([1]; Table 2): 0.24 µM

Structure (SMILES): Cc1cccc(Nc2nc(-c3ccncc3Cl)cs2)c1 [Compound 174, 4-(3-Chloro-4-pyridinyl)-N-(3-methylphenyl)-1,3-thiazol-2-amine]
Ratio ([2]; Table 2): >13.8
IC50 ([1]; Table 2): 2.9 µM
